Reference: ChEMBL document CHEMBL2413070, “Histone Deacetylase 4 (HDAC4) Inhibitors: A Promising Treatment for Huntington's Disease” (ACS Med Chem Lett, 2013)

Experiments:
[1] = molecular target: T1, Protein deacetylase HDAC6 (Homo sapiens, UniProt Q9UBN7); test: Inhibition of recombinant full length human HDAC-6 expressed in baculovirus expression system using acetyl-Gly-Ala-Lys(acetyl)-AMC as substrate after 2 hrs by fluorescence microplate reader analysis
T1 sequence (Q9UBN7 whole entry): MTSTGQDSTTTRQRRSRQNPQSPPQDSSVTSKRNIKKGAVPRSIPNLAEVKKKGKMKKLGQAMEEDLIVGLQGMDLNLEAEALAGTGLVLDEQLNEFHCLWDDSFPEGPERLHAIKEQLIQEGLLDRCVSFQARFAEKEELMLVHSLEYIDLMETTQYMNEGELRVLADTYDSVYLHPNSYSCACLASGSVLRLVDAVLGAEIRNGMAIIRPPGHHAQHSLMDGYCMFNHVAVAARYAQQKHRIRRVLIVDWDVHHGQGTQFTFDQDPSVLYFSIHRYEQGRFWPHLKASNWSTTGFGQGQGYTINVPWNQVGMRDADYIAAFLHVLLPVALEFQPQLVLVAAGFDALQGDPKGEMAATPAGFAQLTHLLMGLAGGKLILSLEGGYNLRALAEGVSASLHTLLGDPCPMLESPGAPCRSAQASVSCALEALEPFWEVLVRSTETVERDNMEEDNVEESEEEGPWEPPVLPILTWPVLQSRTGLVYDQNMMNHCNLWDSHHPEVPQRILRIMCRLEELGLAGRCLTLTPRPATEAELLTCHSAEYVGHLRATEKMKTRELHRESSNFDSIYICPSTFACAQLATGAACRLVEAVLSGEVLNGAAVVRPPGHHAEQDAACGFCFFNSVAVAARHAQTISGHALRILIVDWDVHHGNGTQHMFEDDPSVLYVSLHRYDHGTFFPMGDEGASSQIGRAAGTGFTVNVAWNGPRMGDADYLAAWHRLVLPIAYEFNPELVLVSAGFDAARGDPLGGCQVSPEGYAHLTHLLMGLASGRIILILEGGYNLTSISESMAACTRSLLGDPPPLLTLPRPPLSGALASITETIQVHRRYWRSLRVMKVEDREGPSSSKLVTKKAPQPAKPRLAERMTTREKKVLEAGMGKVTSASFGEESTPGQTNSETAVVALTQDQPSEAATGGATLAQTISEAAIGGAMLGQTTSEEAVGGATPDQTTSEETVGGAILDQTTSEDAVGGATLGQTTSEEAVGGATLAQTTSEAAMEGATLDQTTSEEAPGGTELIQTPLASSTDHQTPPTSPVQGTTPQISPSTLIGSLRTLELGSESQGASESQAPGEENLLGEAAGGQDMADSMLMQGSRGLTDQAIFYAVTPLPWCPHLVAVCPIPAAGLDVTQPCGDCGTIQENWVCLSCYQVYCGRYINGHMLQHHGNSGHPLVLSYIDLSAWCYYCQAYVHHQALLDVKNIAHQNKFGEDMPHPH

Histone deacetylase 1 = Histone deacetylase 1 (Homo sapiens, UniProt Q13547); test: Inhibition of recombinant full length human HDAC-1 expressed in baculovirus expression system using acetyl-Gly-Ala-Lys(acetyl)-AMC as substrate after 2 hrs by fluorescence microplate reader analysis
Sequence of Histone deacetylase 1 (Q13547 whole entry): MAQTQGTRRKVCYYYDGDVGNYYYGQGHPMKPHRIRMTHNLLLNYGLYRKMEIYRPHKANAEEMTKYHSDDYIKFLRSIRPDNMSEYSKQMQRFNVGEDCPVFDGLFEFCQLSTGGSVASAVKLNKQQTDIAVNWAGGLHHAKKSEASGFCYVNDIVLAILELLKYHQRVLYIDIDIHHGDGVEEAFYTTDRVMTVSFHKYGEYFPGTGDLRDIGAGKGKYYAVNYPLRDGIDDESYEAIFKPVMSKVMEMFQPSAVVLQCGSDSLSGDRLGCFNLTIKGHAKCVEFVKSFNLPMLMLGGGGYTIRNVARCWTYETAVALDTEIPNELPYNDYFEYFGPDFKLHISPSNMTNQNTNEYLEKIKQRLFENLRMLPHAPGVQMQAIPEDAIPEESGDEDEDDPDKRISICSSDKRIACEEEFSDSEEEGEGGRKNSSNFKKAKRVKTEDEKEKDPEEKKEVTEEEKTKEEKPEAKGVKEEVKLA

With C[C@H](CN(C)Cc1ccccc1)NC(=O)c1ccc(-c2noc(C(F)(F)F)n2)nc1 the IC50 [1] was > 10 µM and the IC50 (Histone deacetylase 1) was > 10 µM.
For CCN(CC)C[C@@H](C)NC(=O)c1ccc(-c2noc(C(F)(F)F)n2)nc1, the IC50 [1] was > 10 µM and the IC50 (Histone deacetylase 1) was > 10 µM.
